Experimental data reported in patent EP4464318A1, “TARGETING TGF-B-ACTIVATED KINASE-1 ACTIVATION IN THE TREATMENT OF NEUROINFLAMMATORY CONDITIONS” (Albert-Ludwigs-Universität Freiburg, priority 2023, dated 2024).

Experiments:
TAK1 = target: T1, TAK1 (Homo sapiens, UniProt O43318); details: cited from earlier work
T1 sequence (O43318 1-606): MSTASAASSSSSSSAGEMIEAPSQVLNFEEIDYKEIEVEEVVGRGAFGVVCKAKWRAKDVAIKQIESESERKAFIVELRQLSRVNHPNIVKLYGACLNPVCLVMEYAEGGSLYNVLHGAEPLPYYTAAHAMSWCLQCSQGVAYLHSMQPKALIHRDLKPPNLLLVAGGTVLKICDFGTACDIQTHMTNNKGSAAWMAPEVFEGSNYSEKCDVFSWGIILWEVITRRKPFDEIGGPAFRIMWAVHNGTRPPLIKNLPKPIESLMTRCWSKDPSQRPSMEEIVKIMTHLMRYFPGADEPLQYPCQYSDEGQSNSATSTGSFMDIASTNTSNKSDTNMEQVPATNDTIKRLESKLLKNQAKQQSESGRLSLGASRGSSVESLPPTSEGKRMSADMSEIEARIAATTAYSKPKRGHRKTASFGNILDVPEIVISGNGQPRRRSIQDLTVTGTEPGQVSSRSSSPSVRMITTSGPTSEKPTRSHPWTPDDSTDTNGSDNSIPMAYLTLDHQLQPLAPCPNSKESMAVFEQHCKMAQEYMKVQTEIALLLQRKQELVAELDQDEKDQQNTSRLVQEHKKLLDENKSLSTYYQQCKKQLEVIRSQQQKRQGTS

[1] = test system: B-ALL (E2A-PBX1) bearing mice treated with CD19 CAR T cells; assay: Elevated plus maze test; format: in vivo; details: CAR19 T cells, CSF1R inhibitor diet vs control diet, from one week prior to tumor injection (Fig. 4)
Description: (§1) Mice were treated with either takinib (Selleckchem, Germany) or vehicle after B-NHL or B-ALL transplantation. For the treatment, stocks of 3 mg/ml and 10 mg/ml of takinib were prepared in DMSO. The stocks were diluted in 0.5% carboxymethylcellulose solution (vehicle) and administered by intraperitoneal injection at a dosage of 0.15 mg/kg (takinib-FACS) and 0.5 mg/kg (survival and behaviour studies) per mouse per day from day 3 to day 9 following either B-NHL or B-ALL transplant, as described previously (13a). An equal volume of corresponding vehicles was administrated to the control groups daily from day 3 until day 9. For survival expriments, 0.5 mg/kg takinib or vehicle per mouse per day was administered intraperitonially from day 3 to day 11 following either B-NHL or B -ALL transplant, as described previously.
(§2) The E2A-PBX1 cell line (15a) was provided by Dr. Federico Simonetta (Stanford, USA). […] The mice were perfused with ice cold PBS on day 10 and the CNS was analysed. […]
(§3) Mice received PLX5622 (CSF1R inhibitor) chow or control chow (Research Diets) for 7 days prior to the experiment to achieve microglial depletion. […] The effectiveness of microglia depletion was determined by flow cytometry.
We performed the elevated plus maze test to evaluate the anxiety behaviour in mice as described previously with minor modifications (18a). […] We quantified the time they spent in the open arm in minutes. […]

[2] = test system: B-ALL (E2A-PBX1) bearing mice treated with CD19 CAR T cells; assay: Novel object recognition test; format: in vivo; details: CAR19 T cells, CSF1R inhibitor diet vs control diet, from one week prior to tumor injection (Fig. 4)
Description: as §1, with “For survival expriments, 0.5 mg/kg takinib or vehicle per mouse per day was administered intraperitonially from day 3 to day 11 following either B-NHL or B -ALL transplant, as described previously.” left out
as §2, §3
Novel object recognition test was performed as described previously with modifications (17a). […] The amount of time spent by the mouse exploring the novel object to the total exploration time is calculated as an index of recognition memory.

[3] = test system: B-ALL (E2A-PBX1) bearing mice treated with CD19 CAR T cells; assay: Grip strength test; format: in vivo
Description: as §1
(§4) The E2A-PBX1 cell line (15a) was provided by Dr. Federico Simonetta (Stanford, USA). C57BI/6 recipients were sublethally irradiated with 5.5 Gy and transplanted with 2×10^5 E2A-PBX1 cells intravenously. […] The mice were perfused with ice cold PBS on day 10 and the CNS was analysed. […]
Mice received PLX5622 (CSF1R inhibitor) chow or control chow (Research Diets) for 7 days prior to the experiment to achieve microglial depletion. […] The effectiveness of microglia depletion was determined by flow cytometry. […]

[4] = test system: B-ALL (E2A-PBX1) bearing mice treated with CD19 CAR T cells; assay: BBB leakage (FITC-dextran extravasation) in the CNS; format: in vivo
Description: as §1, §4, §3

[5] = test system: microglia (CD45lo CD11b+); assay: Microglial depletion: flow cytometry of CNS cells of B-ALL bearing mice; format: in vivo
Description: (§5) Mice received PLX5622 (CSF1R inhibitor) chow or control chow (Research Diets) for 7 days prior to the experiment to achieve microglial depletion. C57BI/6 mice were irradiated with 5.5 Gy and transplanted with 2×10^5 E2A-PBX1 cell lines. 10×10^6 CD19 CAR T were injected on day 7 and behaviour studies were performed on day 10. Mice were maintained on PLX5622 chow or control chow throughout the duration of the experiment. The effectiveness of microglia depletion was determined by flow cytometry.
(§6) The CNS cells were isolated as described previously (20a) with modifications. Briefly, the mice were anesthetized and were perfused with 1X cold PBS. The CNS was isolated, homogenized and filtered through a 70 µm nylon filter. The homogenate was suspended in 37% isotonic Percoll solution and centrifuged at 800 × g for 30 min without a break in application. The myelin layer was removed from the top of 37% Percoll and the pelleted cells were washed with 1X PBS for further analysis.

B-ALL (E2A-PBX1) = assay: Tumor burden and myeloid cells in spleen and BM of B-ALL bearing mice on CSF1R inhibitor diet; format: in vivo
Description: as §5

[6] = test system: microglia (CD45lo CD11b+); assay: Flow cytometry of microglia from the CNS of B-NHL (A20) bearing mice treated with CD19 CAR T cells; format: in vivo
Description: as §1
(§7) A20 Luc^+ GFP^+ immortalized murine lymphoma cell lines were used to induce B-NHL in mice. BALB/c recipients were sublethally irradiated with 4.5 Gy and transplanted with 1×10^6 A20 Luc^+ GFP^+ intravenously. 7 days later 10×10^6 syngeneic CD19 CAR T cells generated from BALB/c mice were administered. The mice were perfused with Ice cold PBS on day 10 and CNS was analysed. For survival experiments BALB/c recipients were sublethally irradiated with 4.5 Gy and transplanted intravenously with 1×10^5 A20 Luc^+ GFP^+ cells. Seven days later 5×10^6 syngeneic CD19 CAR T cells from BALB/c mice were administered. Tumor burden was checked by bioluminescence imaging.
as §6

[7] = test system: NK1.1+, CD45+, CD11b+ and CD3+ cells; assay: Immune cell counts in spleen and BM of B-NHL (A20) bearing mice that received CD19 CAR T cells; format: in vivo; details: takinib i.p. day 3 to day 9 vs vehicle (Fig. 24, 25)
Description: as §1
as §7, with “Seven days later 5×10^6 syngeneic CD19 CAR T cells from BALB/c mice were administered. Tumor burden was checked by bioluminescence imaging.” left out

B-NHL (A20) = B-NHL (A20) lymphoma burden in vivo (bioluminescence, CD19+ cells in bone marrow); details: CAR19/takinib vs CAR19/vehicle treated mice (Fig. 8a,b)
Description: as §1
as §7, with “Seven days later 5×10^6 syngeneic CD19 CAR T cells from BALB/c mice were administered. Tumor burden was checked by bioluminescence imaging.” left out

B-NHL (A20) cells [8] = assay: Co-culture of B-NHL (A20) cells with NT or CD19 CAR T cells in vitro; format: cell-based; details: co-culture E:T 5:1, 10µM takinib or vehicle (Fig. 8c)
Description: A20 Luc^+ GFP^+ cells were stained with cell trace violet as per the manufacturer's instructions (Life Technologies). A20 Luc^+ GFP^+ cells and CD19 CAR T cells were incubated at ratios 1:1, 2:1, 5:1, and 10:1 for 16h at 37° C. Following incubation, cells were harvested and stained with live/dead far red fixable viability stain (Invitrogen).
(§8) B-NHL cells were labelled with cell trace violet (Invitrogen) as per the manufacturer's instructions. B-NHL cells and NT or CD19 CAR T cells were cultured with 0:1, 1:1, 1:5 and 1:10 ratios for 16-20h. Post-incubation cells were washed and stained for live dead zombie stain and specific lysis was calculated. For analyzing the expression of T cell markers, B-NHL and NT or CD19 CAR T cells were co-cultured at a ratio of 1:5 for 16-20h and treated with either 10µM of takinib or vehicle.

B-NHL (A20) cells [9] = assay: Viability of B-NHL (A20) cells, 24h; format: cell-based, murine; details: indicated concentrations of takinib, 24h (Fig. 28a)
B-ALL (E2A-PBX1) cells = assay: Viability of B-ALL (E2A-PBX1) cells, 24h; format: cell-based, murine; details: indicated concentrations of takinib, 24h (Fig. 28b)
CD19 CAR T cells = assay: T cell markers and T cell viability in co-culture of B-NHL and NT/CD19 CAR T cells; format: cell-based
Description: as §8

B-NHL (A20) bearing mice = assay: Survival of B-NHL (A20) bearing mice that received CD19 CAR T cells; format: in vivo
Description: as §1
A20 Luc^+ GFP^+ immortalized murine lymphoma cell lines were used to induce B-NHL in mice. […] The mice were perfused with Ice cold PBS on day 10 and CNS was analysed. […]
(§9) For sample size in the murine survival experiments a power analysis was performed. A sample size of at least n=8 per group was determined by 80% power to reach a statistical significance of 0.05 in order to detect an effect size of at least 1.06. Differences in animal survival (Kaplan-Meier survival curves) were analyzed by Mantel Cox test. […]

[10] = test system: B-ALL (E2A-PBX1) bearing mice; assay: Survival of B-ALL (E2A-PBX1) bearing mice that received CD19 CAR T cells; format: in vivo
Description: as §1, §2, §9

SMILES: CCCn1c(NC(=O)c2cccc(C(N)=O)c2)nc2ccc(CN3CCCCC3)cc21 [HS-276]
- IC50 (TAK1): 2.3 nM
- Ki (TAK1): 2.5 nM

SMILES: COc1ncc(F)cc1CNc1ccc(Cc2c[nH]c3ncc(C)cc23)c(F)n1 [PLX5622]
- neurocognitive deficits, elevated plus maze test [1]: improved neurocognitive deficits
- neurocognitive deficits, novel object recognition test [2]: improved neurocognitive deficits
- grip strength ([3]; CAR19 T cells, CSF1R inhibitor diet vs control diet (Fig. 4)): no difference
- BBB leakage ([4]; CAR19 T cell-treated mice, CSF1R inhibitor (PLX5622) diet vs control diet (Fig. 23)): did not reduce
- microglia numbers ([5]; PLX5622 diet day -7 to day 10 vs control (Fig. 21b-d)): declined
- CD45hi, Ly6G+ and Ly6C+ myeloid cells infiltrating the CNS ([5]; PLX5622 diet vs control diet (Fig. 21e-g)): no significant changes
- Ly6C+ and F4/80+ myeloid cells in the spleen (B-ALL (E2A-PBX1); CSF1R inhibitor diet vs control diet (Fig. 22c,d)): no impact
- lymphoma burden in spleen and BM (B-ALL (E2A-PBX1); CSF1R inhibitor prior to CAR19 T cell transfer vs vehicle-treated mice (Fig. 22a,b)): did not reduce

SMILES: COCCN1CCN(Cc2ccc(-c3n[nH]c4c3C(=O)c3c(NC(=O)NN5CCOCC5)cccc3-4)cc2)CC1 [RGB-286638 free base]
- IC50 (TAK1): 5 nM

SMILES: CCCn1/c(=N/C(=O)c2cccc(C(N)=O)c2)[nH]c2ccccc21 [Takinib]
- expression of TNF in microglia ([6]; takinib 0.15 mg/kg per mouse per day i.p. day 3 to day 9 vs vehicle (Fig. 6b,c)): reduced expression
- p38 phosphorylation in microglia ([6]; takinib 0.15 mg/kg per mouse per day i.p. day 3 to day 9 vs vehicle (Fig. 6f,g)): reduced
- expression of GM-CSF in microglia ([6]; takinib 0.15 mg/kg per mouse per day i.p. day 3 to day 9 vs vehicle (Fig. 6d,e)): reduced expression
- p70s6K total protein in microglia ([6]; takinib 0.5 mg/kg per mouse per day i.p. day 3 to day 9 vs vehicle (Fig. 6h,i)): reduced
- myeloid cell, T cell or NK cell counts in the periphery [7]: did not reduce
- grip strength ([3]; CAR19 T cells + takinib vs vehicle (Fig. 6l)): no difference
- BBB leakage in the cortex ([4]; B-ALL (E2A-PBX1) bearing mice after CAR19 T cell transfer, takinib vs vehicle (Fig. 6m, 26a)): trend towards a lower BBB leakage
- B-NHL (A20) lymphoma burden (B-NHL (A20)): decreased
- cytotoxicity against B-NHL (A20) in vitro (B-NHL (A20) cells [8]): increased cytotoxicity
- cell death of B-NHL (A20) cells (B-NHL (A20) cells [9]): dose-dependent cell death
- cell death of B-ALL (E2A-PBX1) cells (B-ALL (E2A-PBX1) cells): dose-dependent cell death
- markers of cytotoxicity including perforin, CD107a, IFN-y, and TNF (CD19 CAR T cells; CD3+ T cells, co-culture 1:5, 10µM takinib or vehicle (Fig. 29a-g)): remained unaffected
- viability of CAR19 or NT T cells (CD19 CAR T cells; co-culture with B-NHL (A20), 10µM takinib or vehicle (Fig. 29h)): remained unaffected
- survival (B-NHL (A20) bearing mice; CAR19/takinib vs CAR19/vehicle treated B-NHL bearing mice, 0.5 mg/kg i.p. (Fig. 8d)): survived longer
- survival ([10]; CAR19/takinib vs CAR19/vehicle, E2a-PBX1 model, 0.5 mg/kg i.p. (Fig. 8f)): increased

SMILES: C[C@]12C=CC(=O)C=C1CC[C@@H]1[C@@H]2[C@@H](O)C[C@@]2(C)[C@H]1CC[C@]2(O)C(=O)CO [prednisolone]
- protective effect of CAR19 T cells against lymphoma growth (B-NHL (A20) bearing mice; B-NHL (A20) bearing mice, prednisolone day 3 to day 9 (Fig. 8e)): reduced
- protective effect of CAR19 T cells against leukemia expansion ([10]; B-ALL (E2a-PBX1) bearing mice, prednisolone day 3 to day 9 (Fig. 8g)): reduced
